{"source": "patent US20260138949A1", "about": "“NOVEL COMPOUND AS PHOSPHOLIPASE D INHIBITOR AND USE THEREOF” (UIF (UNIVERSITY INDUSTRY FOUNDATION), YONSEI UNIVERSITY, priority 2022, published 2026)"}
{"test_system": "phospholipase D1", "assay": "PLD activity in HCT116 cells ([3H]phosphatidylbutanol, TLC)", "assay_type": "cell-based, human", "settings": "compound 10 μM, cells without the compound = 100%"}
{"smiles": "O=C(Nc1cc(F)cc(F)c1)c1cc2cc(F)ccc2[nH]1", "note": "[Example 1-92, N-(3,5-difluorophenyl)-5-fluoro-1H-indole-2-carboxamide]", "Remaining activity % at 10 μM": "56.88%"}
{"smiles": "COc1ccc(NC(=O)c2cc3cc(F)ccc3[nH]2)cc1OC", "note": "[Example 1-93, N-(3,4-dimethoxyphenyl)-5-fluoro-1H-indole-2-carboxamide]", "Remaining activity % at 10 μM": "58.09%"}
{"smiles": "COc1ccc(CNC(=O)c2cc3cc(F)ccc3[nH]2)cc1OC", "note": "[Example 1-94, N-(3,4-dimethoxybenzyl)-5-fluoro-1H-indole-2-carboxamide]", "Remaining activity % at 10 μM": "53.46%"}
{"smiles": "O=C(Nc1cccc(C(F)(F)F)c1)c1cc2cc(F)ccc2[nH]1", "note": "[Example 1-95, 5-fluoro-N-(3-(trifluoromethyl)phenyl)-1H-indole-2-carboxamide]", "Remaining activity % at 10 μM": "52.08%"}
{"smiles": "COc1cc(NC(=O)c2cc3cc(F)ccc3[nH]2)cc(OC)c1", "note": "[Example 1-96, N-(3,5-dimethoxyphenyl)-5-fluoro-1H-indole-2-carboxamide]", "Remaining activity % at 10 μM": "98.38%"}
{"smiles": "O=C(Nc1ccccc1F)c1cc2cc(F)ccc2[nH]1", "note": "[Example 1-97, 5-fluoro-N-(2-fluorophenyl)-1H-indole-2-carboxamide]", "Remaining activity % at 10 μM": "not active"}
{"smiles": "O=C(Nc1cccc(F)c1)c1cc2cc(F)ccc2[nH]1", "note": "[Example 1-98, 5-fluoro-N-(3-fluorophenyl)-1H-indole-2-carboxamide]", "Remaining activity % at 10 μM": "76.66%"}
{"smiles": "O=C(Nc1cc(C(F)(F)F)cc(C(F)(F)F)c1)c1cc2cc(Cl)ccc2[nH]1", "note": "[Example 1-99, N-(3,5-bis(trifluoromethyl)phenyl)-5-chloro-1H-indole-2-carboxamide]", "Remaining activity % at 10 μM": "not active"}
{"smiles": "COC(=O)c1ccc2[nH]c(C(=O)Nc3cc(C(F)(F)F)cc(C(F)(F)F)c3)cc2c1", "note": "[Example 1-100, methyl 2-((3,5-bis(trifluoromethyl)phenyl)carbamoyl)-1H-indole-5-carboxylate]", "Remaining activity % at 10 μM": "46.12%"}
{"smiles": "O=C(O)c1ccc2[nH]c(C(=O)Nc3cc(C(F)(F)F)cc(C(F)(F)F)c3)cc2c1", "note": "[Example 1-101, 2-((3,5-bis(trifluoromethyl)phenyl)carbamoyl)-1H-indole-5-carboxylic acid]", "Remaining activity % at 10 μM": "57.61%"}
{"smiles": "O=C(Nc1cc(C(F)(F)F)cc(C(F)(F)F)c1)c1cc2cc(C(F)(F)F)ccc2[nH]1", "note": "[Example 1-102, N-(3,5-bis(trifluoromethyl)phenyl)-5-(trifluoromethyl)-1H-indole-2-carboxamide]", "Remaining activity % at 10 μM": "35.11%"}
{"smiles": "Cc1cc(C)cc(NC(=O)c2cc3cc(F)ccc3[nH]2)c1", "note": "[Example 1-103, N-(3,5-dimethylphenyl)-5-fluoro-1H-indole-2-carboxamide]", "Remaining activity % at 10 μM": "75.43%"}
{"smiles": "Cc1cc(C)cc(NC(=O)c2cc3ccccc3[nH]2)c1", "note": "[Example 1-104, N-(3,5-dimethylphenyl)-1H-indole-2-carboxamide]", "Remaining activity % at 10 μM": "66.73%"}
{"smiles": "O=C(Nc1ccc(O)c(O)c1)c1c[nH]c2ccccc12", "note": "[Example 1-105, N-(3,4-dihydroxyphenyl)-1H-indole-3-carboxamide]", "Remaining activity % at 10 μM": "39.17%"}
{"smiles": "O=C(Cc1c[nH]c2ccccc12)Nc1ccc(O)c(O)c1", "note": "[Example 1-106, N-(3,4-dihydroxyphenyl)-2-(1H-indol-3-yl)acetamide]", "Remaining activity % at 10 μM": "62.00%"}
{"smiles": "O=C(Cc1c[nH]c2ccccc12)NCc1ccc(O)c(O)c1", "note": "[Example 1-107, N-(3,4-dihydroxybenzyl)-2-(1H-indol-3-yl)acetamide]", "Remaining activity % at 10 μM": "88.12%"}
{"smiles": "O=C(CCc1c[nH]c2ccccc12)Nc1ccc(O)c(O)c1", "note": "[Example 1-108, N-(3,4-dihydroxyphenyl)-3-(1H-indol-3-yl)propanamide]", "Remaining activity % at 10 μM": "76.29%"}
